Legend:
[1] = dextro enantiomer; Taggart et al. 1985, McComb et al. 1985; cited from earlier work
Dog = experiment: Ventricular fibrillation threshold in dog; assay type: in vivo, mongrel dog; conditions: 5 mg/kg i.v.
Experimental: VENTRICULAR FIBRILLATION THRESHOLD
Mongrel dogs of both sexes weighing 12 to 18 kg were anesthetized with sodium pentobarbital (35 mg/kg i.v. supplemented with 5 mg/kg/h) and artificially ventilated with room air (minute volume: 200 mL/kg).
A right thoracotomy was performed at the fifth intercostal space and the heart suspended in a pericardial cradle. Bipolar electrodes for stimulation were sutured to the free wall of the right atrium and to the right ventricle.
The dog heart was paced by a stimulus for driving a constant current isolation unit.
Ventricular fibrillation threshold (VFT) was determined during atrial pacing at […]. Trains of 4-msec duration square-wave pulses (50 Hz, 200-msec duration) were delivered to the right ventricle via the epicardial bipolar electrode (silver contacts 1 mm in diameter and 5 mm apart embedded in acrylic matrix). Trains of pulses were delivered every 12th paced beat and were timed to terminate with the end of the T wave of the ECG. Current intensity was increased progressively until ventricular fibrillation (VF) occurred. The lowest current intensity producing VF was defined as the ventricular fibrillation threshold (VFT). […] VFT was measured twice before drug administration to establish a stable pre-drug threshold. […]

Purkinje Fiber = experiment: Cardiac electrophysiology in vitro: action potential parameters of dog Purkinje fibers; assay type: cell-based; conditions: 3 μM, BCL = 300
Experimental: Bundles of free-running Purkinje fibers with attached myocardium obtained from either ventricle of adult dog heart were pinned without stretching to the bottom of a 10 mL tissue chamber and continuously superfused with oxygenated Tyrode's solution at a flow rate of 5 mL/minute. The composition of the Tyrode's solution was (mM): NaCl, 138; KCl 4; CaCl2, 2; MgCl2, 0.5; NaHCO3, 24; dextrose, 5.5. The solution was aerated with 95% O2 --5% CO2 at 37° C. Bath temperature was maintained at 37°±0.5° C. by circulating the pre-warmed superfusate through a thermostatically controlled water bath immediately prior to entering the tissue chamber. […] The first derivative of the action potential upstroke (Vmax) was obtained using an analog differentiator circuit, coupled to a peak-hold circuit that retained the recorded value of Vmax for 30 to 70-msec. […] Action potential (AP) parameters measured included: diastolic take-off potential (or activation voltage, V(act); AP overshoot (Vos); AP duration measured as the time taken to repolarize to -20 mV (APD-20), -60 mV (APD-60), and -80 mV (APD-80); and maximal upstroke velocity (Vmax). An increase in APD-60 that occurred without a significant change in Vmax was taken, by definition, to indicate Class III antiarrhythmic activity "in vitro".

In the case of `CC(C)NCC(O)c1ccc(NS(C)(=O)=O)cc1` (stereo not shown) [Sotalol, 4-(2-isopropylamino-1-hydroxyethyl)-methanesulfonamide], the “selective Class III antiarrhythmic activity” value [1] is listed as “selective Class III antiarrhythmic activity”.

For `CN(Cc1ccc2ccccc2n1)CC(O)COc1ccc(NS(C)(=O)=O)cc1` (stereo not shown) [Example 4, N-[4-[2-Hydroxy-3-[methyl(2-quinolinylmethyl)amino]propoxy]phenyl]methanesulfonamide], the “Ventricular fibrillation threshold (current threshold necessary to induce fibrillation)” value (Dog; n = 6, x + S.E., pre-drug vehicle 8 + 2) was 25 + 7 mA and the animals defibrillated spontaneously (Dog; of 6 animals) was 2 animals.

For `CN(Cc1ccc2ccccc2n1)CC(O)COc1ccc([N+](=O)[O-])cc1.Cl.Cl` (stereo not shown) [Example 3, 1-[Methyl(2-quinolinylmethyl)amino]-3-(4-nitrophenoxy)-2-propanol Dihydrochloride], the APD-60 (Purkinje Fiber) was “did not pace”.
